Source: patent US20110212181A1, “COMPOSITIONS AND METHODS FOR TREATING CHRONIC RESPIRATORY INFLAMMATION” (The University of Hong Kong, priority 2010, published 2011)

What was measured:
[1] = biological target: T1, NE (Homo sapiens, UniProt P08246); assay: Surface plasmon resonance competition assay, NE binding to HS-SA sensor chip; details: for competition for NE binding to immobilized HS (in words): solution-surface competition, SPR; for competitive effectiveness (inhibition of NE binding to immobilized HS): NE at 1,000 nM, competing glycosaminoglycans at 1,000 ng/ml
T1 sequence (P08246 30-267): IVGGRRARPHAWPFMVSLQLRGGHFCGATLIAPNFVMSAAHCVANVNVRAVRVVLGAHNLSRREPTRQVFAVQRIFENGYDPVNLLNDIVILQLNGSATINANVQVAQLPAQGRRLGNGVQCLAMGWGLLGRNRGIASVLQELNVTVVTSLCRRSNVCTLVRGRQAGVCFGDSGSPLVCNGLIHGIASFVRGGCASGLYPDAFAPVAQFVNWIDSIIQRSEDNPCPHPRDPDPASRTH
Description: (§1) Interactions of HS and NE were analyzed with a BIAcore 2,000 optical biosensor (BIAcore, Uppsala, Sweden). HS chains recovered from rhSyn-1 after LiOH treatment were biotinylated at the reducing ends (68 nmol biotin/mg HS, as determined by Quant*Tag Biotin kit; Vector Laboratories, Peterborough, UK). By a 2-minute injection of biotinylated HS, […] in 10 mM Hepes (pH 7.4), 0.15 M NaCl, and 0.005% P20 surfactant (HBS-P; BIAcore), at a flow rate of […] onto the streptavidin (SA) sensor chip (BIAcore), increase in 250 resonance units indicated successful immobilization of HS onto the sensor chip. Increasing concentrations of NE in HBS-P buffer were perfused (at […] for 2 min) in turn over the HS-SA sensor chip, each followed by perfusion of buffer to facilitate dissociation. Responses were monitored at 25° C. The sensor chip was regenerated with perfusion of 2 M NaCl/HBS-P. Resonance data obtained from sensorgrams were evaluated with BIAevaluation 3.0 software (BIAcore) to yield rate constants for association (ka), dissociation (kd) and the equilibrium dissociation constant (Kd). For competition assays, NE (2,000 nM) premixed at 1:1 (vol/vol) with defined concentrations (250-2,000 ng/ml) of the competing glycosaminglycan-chondroitin 4-sulfate (C4S), heparin, and chemically modified heparins (N-desulfated re-N-acetylated, completely desulfated re-N-acetylated, or 2-O and 6-O desulfated and N-sulfated; Seikagaku) in HBS-P buffer for 30 minutes at 4° C. was injected onto the HS-SA sensor chip at […]. Dissociation and regeneration procedures were as described above. […] All experiments were preformed in duplicate. Resonance data obtained from sensorgrams were plotted as percent inhibition relative to that obtained without competing glycosaminoglycan. The concentration of competing glycosaminoglycan that interfered with NE binding to the HS-SA sensor by 50% was determined using the statistical program, PRISM (GraphPad, Inc., San Diego, Calif.).

[2] = biological target: T1, NE; assay: Surface plasmon resonance analysis of NE-HS binding
Description: as §1

[3] = biological target: T2, rhSyn-1 (Homo sapiens, UniProt P18827); assay: Western ligand blot of rhSyn-1; type: binding
T2 construct: made in house
T2 sequence (P18827 23-310): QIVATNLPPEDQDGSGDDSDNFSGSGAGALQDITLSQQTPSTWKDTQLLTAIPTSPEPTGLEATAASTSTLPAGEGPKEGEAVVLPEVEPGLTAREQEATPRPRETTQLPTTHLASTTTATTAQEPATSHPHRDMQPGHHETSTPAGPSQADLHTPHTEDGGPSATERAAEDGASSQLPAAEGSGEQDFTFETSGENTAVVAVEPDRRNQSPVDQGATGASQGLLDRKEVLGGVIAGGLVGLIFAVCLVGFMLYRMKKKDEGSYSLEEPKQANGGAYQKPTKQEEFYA
Description: Sputum sol was treated (30 min, 24° C.) with the mucolytic reducing agent, DTT (5 mM; Sigma) to deactivate NE, dialyzed against PBS (16 h, 4° C.) to remove DTT, and then incubated (16 h, 37° C.) with HS^ase I and II (0.01 unit each; Seikagaku, Tokyo, Japan) or chondroitinase ABC (0.01 unit; Seikagaku). Control treatments were performed in the relevant incubation buffer (product sheet; Seikagaku), but without the indicated enzymes. The digestion products were subjected to Western blot and Western ligand blot analyses. Recombinant Syn-1 was similarly treated, deglycanated, and analyzed, but without prior treatment with DTT.
Sputum sol samples were treated with DTT, as described above, and then subjected to SDS-PAGE in a 10% gel under nonreducing conditions. The gel electrophoretogram was electroblotted onto polyvinylidene fluoride membrane and nonspecific binding was blocked with 5% nonfat dry milk (1 h, 24° C.) before the blot was probed for the epitope of interest. […] Secondary antibodies were conjugated with horseradish peroxidase. The membranes were washed with PBS-Tween® 20 between incubations. Visualization was enhanced with an enhanced chemiluminescence kit (Amersham Biosciences, Piscataway, N.J.). […]

[4] = biological target: T1, NE; assay: Inhibition of NE activity in the presence of rhSyn-1 or sputum sol; type: biochemical; details: incubations with rhSyn-1 and with sputum samples, with and without prior HS^ase I and II treatment
Description: Unopposed NE activity in sputum sol was assessed for equivalent molar concentration by active-site titration. The NE activity of sputum sol was estimated using MeO-Suc-Ala-Ala-Pro-Val-p-nitroanilide as substrate at 2 mM in 0.2 M Tris-HCl, 0.5 M NaCl (pH 8.0); the hydrolytic release of p-nitroaniline was followed at 410 nm, 37° C. (molar extinction coefficient at 410 nm=8,800). An equivalent activity of purified human NE (Sigma, St. Louis, Mo.) was titrated with increasing concentrations of the irreversible inhibitor, MeO-Suc-Ala-Ala-Pro-Val-CMK (Calbiochem, La Jolla, Calif.), and the residual activities were measured.
The inhibitor effects were compared with those of parallel procedure performed on DTT-pretreated sputum sol samples of the 12 patient recruits.

[5] = NE over immobilized HS, 1:1 Langmuir model

## chondroitin 4-sulfate [C4S]
[1]
  competition for NE binding to immobilized HS (in words): failed to outcompete
[1]; listed as CS
  competition for NE binding to immobilized HS (in words): not

## heparan sulfate [HS]
[2]; NE (50-1,500 nM) perfused over immobilized HS from rhSyn-1, 1:1 Langmuir model, 25° C., read-out: equilibrium dissociation constant (Kd)
  Kd: 14.2 nM
[2]; [5]
  ka, rate constant for association: 3.31 ± 0.14 × 10^4 M^−1s^−1
  kd, rate constant for dissociation: 4.69 ± 0.21 × 10^−4 s^−1

## Completely desulfated and re-N-acetylated heparin
[1]
  competition for NE binding to immobilized HS (in words): failed to outcompete

## heparin
[1]
  competitive effectiveness (inhibition of NE binding to immobilized HS): 95%
  competition for NE binding to immobilized HS (in words): Effective competition

## 2-0 and 6-0 desulfated and N-sulfated heparin
[1]
  competitive effectiveness (inhibition of NE binding to immobilized HS): approximately 60%

## alpha-1-antitrypsin [α1-AT]
[3]
  binding to glycanated rhSyn-1: not
[3]; after heparitinase and chondroitinase treatments
  binding to deglycanated rhSyn-1 core protein: binding

## N-desulfated and re-N-acetylated heparin
[1]
  competitive effectiveness (inhibition of NE binding to immobilized HS): approximately 75%

B1: eglin C (peptide, UniProt P01051 1-70, looked up)
Eglin C: TEFGSELKSFPEVVGKTVDQAREYFTLHYPQYDVYFLPEGSPVTLDLRYNRVRVFYNPGTNVVNHVPHVG
[4]
  inhibition of NE activity (in words): complete inhibition
